Results reported in PubChem BioAssay AID2060484 (Molecular Pharmacology Branch, DTP, NCI, 2025).

Tested on: SUM149PT spheroids with HUVEC/MSC, viability
Assay: Anticancer human tumor SUM149PT cell line growth inhibition [GQUAD];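 note: spheroids exposed to drugs for seven days before readout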;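 for viability, T/C: percent viability relative to DMSO vehicle control taken as 100%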
Conditions: for IC50: curve of first compound; for viability, T/C: stronger effect = lower value
Outline: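 Tumor cells were grown as complex spheroids with HUVEC endothelial cells and mesenchymal stem cells as stroma. G-quadruplex stabilizers were combined with targeted agents over half-log dilutions from near the clinical Cmax, or from 10 microM.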

[1] = second compound 0.0316 µM, first compound 0.0316 µM
[2] = second compound 0.0316 µM, first compound 0.1 µM
[3] = second compound 0.0316 µM, first compound 0.316 µM
[4] = second compound 0.0316 µM, first compound 1 µM
[5] = second compound 0.0316 µM, first compound 3.16 µM
[6] = second compound 0.0316 µM, first compound 10 µM
[7] = second compound 0.1 µM, first compound 0.0316 µM
[8] = second compound 0.1 µM, first compound 0.1 µM
[9] = second compound 0.1 µM, first compound 0.316 µM
[10] = second compound 0.1 µM, first compound 1 µM
[11] = second compound 0.1 µM, first compound 3.16 µM
[12] = second compound 0.1 µM, first compound 10 µM
[13] = second compound 0.316 µM, first compound 0.0316 µM
[14] = second compound 0.316 µM, first compound 0.1 µM
[15] = second compound 0.316 µM, first compound 0.316 µM
[16] = second compound 0.316 µM, first compound 1 µM
[17] = second compound 0.316 µM, first compound 3.16 µM
[18] = second compound 0.316 µM, first compound 10 µM
[19] = second compound 1 µM, first compound 0.0316 µM
[20] = second compound 1 µM, first compound 0.1 µM
[21] = second compound 1 µM, first compound 0.316 µM
[22] = second compound 1 µM, first compound 1 µM
[23] = second compound 1 µM, first compound 3.16 µM
[24] = second compound 1 µM, first compound 10 µM
[25] = second compound 3.16 µM, first compound 0.0316 µM
[26] = second compound 3.16 µM, first compound 0.1 µM
[27] = second compound 3.16 µM, first compound 0.316 µM
[28] = second compound 3.16 µM, first compound 1 µM
[29] = second compound 3.16 µM, first compound 3.16 µM
[30] = second compound 3.16 µM, first compound 10 µM
[31] = second compound 10 µM, first compound 0.0316 µM
[32] = second compound 10 µM, first compound 0.1 µM
[33] = second compound 10 µM, first compound 0.316 µM
[34] = second compound 10 µM, first compound 1 µM
[35] = second compound 10 µM, first compound 3.16 µM
[36] = second compound 10 µM, first compound 10 µM

COc1cccc2c1C(=O)c1c(O)c3c(c(O)c1C2=O)CC(O)(C(=O)CO)CC3OC1CC(N)C(O)C(C)O1 (centres undefined) + Cc1cnc(CNC(=O)c2c(=O)c3ccc(N4CCCN(C)CC4)nc3n3c2sc2ccccc23)cn1
IC50 (second compound 0.0316 µM): 112 nM | IC50 (second compound 0.1 µM): 97.9 nM | IC50 (second compound 0.316 µM): 75.9 nM | IC50 (second compound 1 µM): < 31.6 nM | IC50 (second compound 3.16 µM): < 31.6 nM | IC50 (second compound 10 µM): < 31.6 nM | viability, T/C [1]: 66.9% | viability, T/C [2]: 48.3% | viability, T/C [3]: 36.2% | viability, T/C [4]: 13.1% | viability, T/C [5]: 1.37% | viability, T/C [6]: 2.54% | viability, T/C [7]: 57.7% | viability, T/C [8]: 47.1% | viability, T/C [9]: 36.3% | viability, T/C [10]: 15.2% | viability, T/C [11]: 1.96% | viability, T/C [12]: 1.69% | viability, T/C [13]: 57.3% | viability, T/C [14]: 45.9% | viability, T/C [15]: 34.1% | viability, T/C [16]: 16.2% | viability, T/C [17]: 2.74% | viability, T/C [18]: 3.01% | viability, T/C [19]: 44.2% | viability, T/C [20]: 43.7% | viability, T/C [21]: 30.1% | viability, T/C [22]: 15.9% | viability, T/C [23]: 0.7% | viability, T/C [24]: 1.88% | viability, T/C [25]: 36.5% | viability, T/C [26]: 35.7% | viability, T/C [27]: 28.9% | viability, T/C [28]: 13% | viability, T/C [29]: 1.22% | viability, T/C [30]: 1.18% | viability, T/C [31]: 0.13% | viability, T/C [32]: 1.99% | viability, T/C [33]: 15.3% | viability, T/C [34]: 0.37% | viability, T/C [35]: 0.4% | viability, T/C [36]: 1.84%

Nc1ccn(C2OC(CO)C(O)C2(F)F)c(=O)n1 (centres undefined) + Cc1cnc(CNC(=O)c2c(=O)c3ccc(N4CCCN(C)CC4)nc3n3c2sc2ccccc23)cn1
IC50 (second compound 0.0316 µM): 49.4 nM | IC50 (second compound 0.1 µM): < 31.6 nM | IC50 (second compound 0.316 µM): < 31.6 nM | IC50 (second compound 1 µM): < 31.6 nM | IC50 (second compound 3.16 µM): < 31.6 nM | IC50 (second compound 10 µM): < 31.6 nM | viability, T/C [1]: 62.7% | viability, T/C [2]: 29.1% | viability, T/C [3]: 22.4% | viability, T/C [4]: 17.9% | viability, T/C [5]: 17.5% | viability, T/C [6]: 12.2% | viability, T/C [7]: 50% | viability, T/C [8]: 31.6% | viability, T/C [9]: 24.5% | viability, T/C [10]: 18.6% | viability, T/C [11]: 16.1% | viability, T/C [12]: 14.5% | viability, T/C [13]: 45.5% | viability, T/C [14]: 29.5% | viability, T/C [15]: 21.3% | viability, T/C [16]: 17.3% | viability, T/C [17]: 17.8% | viability, T/C [18]: 14% | viability, T/C [19]: 40.4% | viability, T/C [20]: 28.7% | viability, T/C [21]: 20.1% | viability, T/C [22]: 17.2% | viability, T/C [23]: 14.6% | viability, T/C [24]: 14.3% | viability, T/C [25]: 34.8% | viability, T/C [26]: 27.1% | viability, T/C [27]: 19.8% | viability, T/C [28]: 17.1% | viability, T/C [29]: 17.8% | viability, T/C [30]: 14.5% | viability, T/C [31]: 8.05% | viability, T/C [32]: 9.51% | viability, T/C [33]: 2.05% | viability, T/C [34]: 0.66% | viability, T/C [35]: 1.03% | viability, T/C [36]: 2.03%
